In patent publication US20050054673A1, “Combination of phenylcarboxylic acid amides with beta-adrenoreceptor blockers and their use for the treatment of atrial arrhythmias” (Aventis Pharma Deutschland GmbH, priority 2003, published 2005):
Marks after values point to notes of the source that are not given here.

Test system: left atrium of the pig
Test: Refractory period in anaesthetized pigs (AERP, left atrium)
Assay type: in vivo
Conditions: for Effect on the refractory period (in words): single substances, Example 1 or 5 after 1 h infusion of 3 mg/kg/h; for Increase after Example 1 in ms: infusion 3 mg/kg/h, vs. control
Description: Investigation of the refractory period in anaesthetized pigs
The investigations were carried out in the anaesthetised pig as described by Knobloch et al. (Knobloch K., Brendel J., Peukert S., Rosenstein B., Busch A.-E., Wirth K.-J., “Electrophysiological and antiarrhythmic effects of the novel IKUR channel blockers, S9947 and S20951, on the left vs. right pig atrium in vivo in comparison with the IKr blockers dofetilide, azimilide, d, I-sotalol and ibutilide”, Naunyn-Schmiedeberg's Arch Pharmacol 2002, 366: 482-487). The action of beta-blockers and IKUR blockers on the refractory period of the left atrium was investigated. First, the action of the individual substances was tested, then the action of the combination of both individual substances.
Male pigs of native German breed of age 2-3 months and weight 23-30 kg were used.
The pigs were premedicated with 3 mL of Rompun® 2% ([…] 23.3 mg/mL=3 mg/kg; injected intramuscularly) and 6 mL of Hostaket® (ketamine 115 mg/mL=20 mg/kg; injected intramuscularly). Anesthesia was induced using an intravenous bolus injection of 5 mL of Narcoren® (pentobarbital 160 mg/mL=25-30 mg/kg; i.v.) and continuously supplied intravenously by means of a pentobarbital perfusor at 12-17 mg/kg/h. After tracheotomy and intubation, the animals were ventilated with oxygen by means of a respirator. A left-lateral thoracotomy was carried out in the fifth intercostal space. The lungs were retracted using sutures, the pericardium was opened and held using sutures so that the heart rocked in this. The tip of a MAP Pacing™ electrophysiology catheter (EP Technologies, Model 1675, Boston Scientific Corporation, 92257 La Garenne-Colombes Cedex, France) were then placed on the free wall of the left atrium in a right-angled position and fixed to the left atrium under constant pressure in a stand. The electrical stimulation was carried out using an external heart stimulator from Biotronik (UHS 20, Universal heart stimulator, Biotronik GmbH, 12359 Berlin, Germany).
Measurement of the atrial effective refractory period (AERP): The electrical atrial response to the external pacemaker stimulation was visualized by means of a mono phasic action potential (MAP), which was derived from the left atrium by means of the electrophysiology catheter. A conditioning stimulation cycle of 10 base intervals (S1) in a double stimulation amplitude followed a diastolic, prematurely coupled extrastimulus (S2, 1 ms pulse duration, 200 ms refractory period), which originated during a 5 ms decrement of a coupling interval, which was 30 ms above the expected effective refractory period (AERP). The 5 mS decrement in the coupling interval of the extrastimulus ran until the atrium no longer produced any response in the form of an action potential. The longest coupling interval which was no longer able to induce any atrial action potential was used as the effective refractory period. The refractory period was in each case investigated at three basal cycle length, 240, 300 and 400 ms).
Experimental groups: The sole action of atenolol (bolus administration of 1 mg/kg) on the refractory period was investigated in a separate group of pigs (n=5).

[1] = basal cycle length 240 ms, atenolol 1 mg/kg bolus i.v., n = 5
[2] = basal cycle length 300 ms, atenolol 1 mg/kg bolus i.v., n = 5
[3] = basal cycle length 400 ms, atenolol 1 mg/kg bolus i.v., n = 5

With `CC(C)NCC(O)COc1ccc(CC(N)=O)cc1` (centres unmarked) [Atenolol, atenolol, reference compound] the “Increase in ms of refractory period vs. control” value (shortened to “Increase in ms”) [1] was 25* ms, the “Refractory period, mean value” [1] was 136 milliseconds and the “Increase in ms” value [2] was 21* ms. The “Refractory period, mean value” [2] was 129 milliseconds, the “Increase in ms” value [3] was 11* ms and the “Refractory period, mean value” [3] was 129 milliseconds.
In the case of `CCCCS(=O)(=O)Nc1ccccc1C(=O)N[C@H](CC)c1ccc(OC)nc1` [Example 5, 2-(Butyl-1-sulfonylamino)-N-[1(R)-(6-methoxypyridin-3-yl)-propyl]benzamide], the “Effect on the refractory period (in words)” value was “increased to a stable level”.
With `COc1ccc(CC(=O)NCc2ccccc2-c2ccccc2C(=O)NCCc2cccnc2)cc1` [Example 1, 2′-{[2-(4-Methoxyphenyl)acetylamino]methyl}biphenyl-2-carboxylic acid (2-pyridin-3-ylethyl)amide] the “Refractory period, mean value” (basal cycle length 240 ms, Example 1 infused 3 mg/kg/h, after 1 h atenolol 1 mg/kg bolus, n = 6) was 136 milliseconds, the “Increase after Example 1 in ms” value (basal cycle length 240 ms, n = 6) was 35^# ms and the “Refractory period, mean value” (basal cycle length 300 ms, Example 1 infused 3 mg/kg/h, after 1 h atenolol 1 mg/kg bolus, n = 6) was 149.5 milliseconds. For the same compound, the “Increase after Example 1 in ms” value (basal cycle length 300 ms, n = 6) was 40.7^# ms, the “Refractory period, mean value” (basal cycle length 400 ms, Example 1 infused 3 mg/kg/h, after 1 h atenolol 1 mg/kg bolus, n = 6) was 166.2 milliseconds and the “Increase after Example 1 in ms” value (basal cycle length 400 ms, n = 6) was 52.3^# ms. For the same compound, the “Effect on the refractory period (in words)” value was “increased to a stable level”.
